Species: Rattus norvegicus
Experiment: Open TG-GATES - Regimen: Daily Repeat
Assay type: toxicity, organism-based, Sprague-Dawley
Set-up: regimen Daily Repeat, gender Male, age 6 weeks
Conditions: in vivo, po, 30 mg/kg, route gavage, dose level Middle; for APTT / Bas / Eos / Fbg / Hb / Ht / Lym / MCH / MCHC / MCV / Mono / Neu / PT / Plat / RBC / Ret / WBC: tissue Blood; for KIDNEY_L / KIDNEY_R / KIDNEY_TOTAL: tissue Kidney; for LIVER: tissue Liver; for A/G / ALP / ALT / AST / BUN / CRE / Ca / Cl / DBIL / GLC / IP / K / LDH / Na / PL / RALB / TBIL / TC / TG / TP / gamma-GTP: tissue Plasma

Compound: CC1=C(/C=C/C(C)=C/C=C/C(C)=C/CO)C(C)(C)CCC1 [RETINOL]
- TERMINAL_BW (72 h, time 3 day): 230.8 g
- APTT (72 h, time 3 day): 23.3 s
- Bas (72 h, time 3 day): 0%
- Eos (72 h, time 3 day): 0.8%
- Fbg (72 h, time 3 day): 299 mg/dL
- Hb (72 h, time 3 day): 13.5 g/dL
- Ht (72 h, time 3 day): 39%
- Lym (72 h, time 3 day): 79.4%
- MCH (72 h, time 3 day): 21.5 pg
- MCHC (72 h, time 3 day): 34.7%
- MCV (72 h, time 3 day): 62 fL
- Mono (72 h, time 3 day): 2.4%
- Neu (72 h, time 3 day): 16.6%
- PT (72 h, time 3 day): 16.8 s
- Plat (72 h, time 3 day): 120.5 x10_4/uL
- RBC (72 h, time 3 day): 629.4 x10_4/ul
- Ret (72 h, time 3 day): 5.6%
- WBC (72 h, time 3 day): 103.8 x10_2/uL
- KIDNEY_L (72 h, time 3 day): 1 g
- KIDNEY_R (72 h, time 3 day): 0.9 g
- KIDNEY_TOTAL (72 h, time 3 day): 1.9 g
- LIVER (72 h, time 3 day): 11.2 g
- A/G (72 h, time 3 day): 1.3
- ALP (72 h, time 3 day): 2028 IU/L
- ALT (72 h, time 3 day): 48.8 IU/L
- AST (72 h, time 3 day): 78.6 IU/L
- BUN (72 h, time 3 day): 19.4 mg/dL
- CRE (72 h, time 3 day): 0.2 mg/dL
- Ca (72 h, time 3 day): 11 mg/dL
- Cl (72 h, time 3 day): 106.8 meq/L
- DBIL (72 h, time 3 day): 0.002 mg/dL
- GLC (72 h, time 3 day): 188.6 mg/dL
- IP (72 h, time 3 day): 6.4 mg/dL
- K (72 h, time 3 day): 4.3 meq/L
- LDH (72 h, time 3 day): 235.6 IU/L
- Na (72 h, time 3 day): 141.2 meq/L
- PL (72 h, time 3 day): 166.4 mg/dL
- RALB (72 h, time 3 day): 3.2 g/dL
- TBIL (72 h, time 3 day): 0.012 mg/dL
- TC (72 h, time 3 day): 78.8 mg/dL
- TG (72 h, time 3 day): 150 mg/dL
- TP (72 h, time 3 day): 5.7 g/dL
- gamma-GTP (72 h, time 3 day): 1.6 IU/L
- TERMINAL_BW ([…], time 7 day): 256.2 g
- TERMINAL_BW ([…], time 14 day): 297 g
- TERMINAL_BW ([…], time 28 day): 360.9 g
- APTT ([…], time 7 day): 26.4 s
- Bas ([…], time 7 day): 0%
- Eos ([…], time 7 day): 0.8%
- Fbg ([…], time 7 day): 275.2 mg/dL
- Hb ([…], time 7 day): 13.7 g/dL
- Ht ([…], time 7 day): 39.4%
- Lym ([…], time 7 day): 83.6%
- MCH ([…], time 7 day): 20.8 pg
- MCHC ([…], time 7 day): 34.8%
- MCV ([…], time 7 day): 59.8 fL
- Mono ([…], time 7 day): 1.6%
- Neu ([…], time 7 day): 13.2%
- PT ([…], time 7 day): 15.8 s
- Plat ([…], time 7 day): 125.2 x10_4/uL
- RBC ([…], time 7 day): 660.2 x10_4/ul
- Ret ([…], time 7 day): 4.6%
- WBC ([…], time 7 day): 81.8 x10_2/uL
- APTT ([…], time 14 day): 28.5 s
- Bas ([…], time 14 day): 0%
- Eos ([…], time 14 day): 0.8%
- Fbg ([…], time 14 day): 290.2 mg/dL
- Hb ([…], time 14 day): 13.4 g/dL
- Ht ([…], time 14 day): 38.1%
- Lym ([…], time 14 day): 76.2%
- MCH ([…], time 14 day): 20 pg
- MCHC ([…], time 14 day): 35.1%
- MCV ([…], time 14 day): 56.9 fL
- Mono ([…], time 14 day): 2.6%
- Neu ([…], time 14 day): 19.8%
- PT ([…], time 14 day): 15.9 s
- Plat ([…], time 14 day): 103.9 x10_4/uL
- RBC ([…], time 14 day): 671.4 x10_4/ul
- Ret ([…], time 14 day): 3.9%
- WBC ([…], time 14 day): 101 x10_2/uL
- APTT ([…], time 28 day): 37.3 s
- Bas ([…], time 28 day): 0%
- Eos ([…], time 28 day): 0.8%
- Fbg ([…], time 28 day): 283 mg/dL
- Hb ([…], time 28 day): 13.8 g/dL
- Ht ([…], time 28 day): 38.6%
- Lym ([…], time 28 day): 76.4%
- MCH ([…], time 28 day): 19.6 pg
- MCHC ([…], time 28 day): 35.7%
- MCV ([…], time 28 day): 54.9 fL
- Mono ([…], time 28 day): 2%
- Neu ([…], time 28 day): 19.8%
- PT ([…], time 28 day): 17.3 s
- Plat ([…], time 28 day): 116.5 x10_4/uL
- RBC ([…], time 28 day): 704 x10_4/ul
- Ret ([…], time 28 day): 2.7%
- WBC ([…], time 28 day): 133 x10_2/uL
- KIDNEY_L ([…], time 7 day): 1.1 g
- KIDNEY_R ([…], time 7 day): 1.1 g
- KIDNEY_TOTAL ([…], time 7 day): 2.2 g
- KIDNEY_L ([…], time 14 day): 1.2 g
- KIDNEY_R ([…], time 14 day): 1.2 g
- KIDNEY_TOTAL ([…], time 14 day): 2.4 g
- KIDNEY_L ([…], time 28 day): 1.4 g
- KIDNEY_R ([…], time 28 day): 1.4 g
- KIDNEY_TOTAL ([…], time 28 day): 2.8 g
- LIVER ([…], time 7 day): 11.7 g
- LIVER ([…], time 14 day): 14.1 g
- LIVER ([…], time 28 day): 15.1 g
- A/G ([…], time 7 day): 1.2
- ALP ([…], time 7 day): 1900.8 IU/L
- ALT ([…], time 7 day): 48.4 IU/L
- AST ([…], time 7 day): 82 IU/L
- BUN ([…], time 7 day): 17.2 mg/dL
- CRE ([…], time 7 day): 0.2 mg/dL
- Ca ([…], time 7 day): 10.5 mg/dL
- Cl ([…], time 7 day): 108.8 meq/L
- DBIL ([…], time 7 day): 0.002 mg/dL
- GLC ([…], time 7 day): 191 mg/dL
- IP ([…], time 7 day): 6.6 mg/dL
- K ([…], time 7 day): 4.4 meq/L
- LDH ([…], time 7 day): 208.2 IU/L
- Na ([…], time 7 day): 143 meq/L
- PL ([…], time 7 day): 148.6 mg/dL
- RALB ([…], time 7 day): 3 g/dL
- TBIL ([…], time 7 day): 0.002 mg/dL
- TC ([…], time 7 day): 71.4 mg/dL
- TG ([…], time 7 day): 175.2 mg/dL
- TP ([…], time 7 day): 5.5 g/dL
- gamma-GTP ([…], time 7 day): 1 IU/L
- A/G ([…], time 14 day): 1.2
- ALP ([…], time 14 day): 1990.8 IU/L
- ALT ([…], time 14 day): 49.4 IU/L
- AST ([…], time 14 day): 83.8 IU/L
- BUN ([…], time 14 day): 17.4 mg/dL
- CRE ([…], time 14 day): 0.2 mg/dL
- Ca ([…], time 14 day): 10.5 mg/dL
- Cl ([…], time 14 day): 108.2 meq/L
- DBIL ([…], time 14 day): 0 mg/dL
- GLC ([…], time 14 day): 198.6 mg/dL
- IP ([…], time 14 day): 5.9 mg/dL
- K ([…], time 14 day): 4.2 meq/L
- LDH ([…], time 14 day): 269 IU/L
- Na ([…], time 14 day): 142.8 meq/L
- PL ([…], time 14 day): 172.6 mg/dL
- RALB ([…], time 14 day): 3 g/dL
- TBIL ([…], time 14 day): 0.002 mg/dL
- TC ([…], time 14 day): 74.4 mg/dL
- TG ([…], time 14 day): 312 mg/dL
- TP ([…], time 14 day): 5.6 g/dL
- gamma-GTP ([…], time 14 day): 1.2 IU/L
- A/G ([…], time 28 day): 1
- ALP ([…], time 28 day): 1673.8 IU/L
- ALT ([…], time 28 day): 56.6 IU/L
- AST ([…], time 28 day): 79.8 IU/L
- BUN ([…], time 28 day): 16.2 mg/dL
- CRE ([…], time 28 day): 0.2 mg/dL
- Ca ([…], time 28 day): 10.1 mg/dL
- Cl ([…], time 28 day): 108 meq/L
- DBIL ([…], time 28 day): 0 mg/dL
- GLC ([…], time 28 day): 183.4 mg/dL
- IP ([…], time 28 day): 6.2 mg/dL
- K ([…], time 28 day): 4.2 meq/L
- LDH ([…], time 28 day): 138.4 IU/L
- Na ([…], time 28 day): 141 meq/L
- PL ([…], time 28 day): 145 mg/dL
- RALB ([…], time 28 day): 2.9 g/dL
- TBIL ([…], time 28 day): 0.026 mg/dL
- TC ([…], time 28 day): 66.6 mg/dL
- TG ([…], time 28 day): 203.4 mg/dL
- TP ([…], time 28 day): 5.7 g/dL
- gamma-GTP ([…], time 28 day): 1.2 IU/L

Source: ChEMBL document CHEMBL3885861, “Open TG-GATES”
